Experimental data: paper PMC8522701 (Journal of nuclear medicine : official publication, Society …, 2012)

Columns and labels:
[1] = tested on: Raji lymphoma mouse model; conditions: in vivo; cited from earlier work
[2] = tested on: VLA-4–positive B16F10 mouse melanoma cells; experiment: Cellular uptake assay, VLA-4-positive B16F10 cells; assay type: cell-based; conditions: 60 min, 37°C, P < 0.05
[3] = tested on: VLA-4–negative MDA-MB-231/fluc human breast cancer tumor cells; experiment: Cellular uptake assay, VLA-4-negative MDA-MB-231/fluc cells; assay type: cell-based; conditions: coincubation with 1 μM nonradioactive ligand, 60 min, 37°C; P = 0.3

^64Cu-labeled 11-bis(carboxymethyl)-1,4,8,11-tetraazabicyclo[6.6.2] hexadecane (CB-TE2A)-LLP2A [^64Cu-CB-TE2A-LLP2A]
tracer uptake in tissues of Raji lymphoma mouse model [1]: uptake in the tumor, spleen, and bone marrow | cellular uptake (sum of internalized and cell surface-bound fractions) in B16F10 cells relative to MDA-MB-231 cells ([2]; 1 nM tracer, cpm/mg protein): higher | blocking of cellular uptake with cold LLP2A in B16F10 cells ([2]; coincubation with 1 μM nonradioactive ligand): blocking with cold LLP2A was observed | blocking of cellular uptake with cold LLP2A in MDA-MB-231/fluc cells [3]: no significant blocking
